Data: patent publication US9616065B2, “Compositions useful in treating brain-related diseases or disorders and methods using same” (priority 2013, dated 2017)
“Also recorded” adds a separate entry of the source. Where two headings read alike, the source gives them in different places.

Assays:
SERT [1] = target: T1, SERT (Homo sapiens, UniProt P31645); experiment: cell-based
T1 construct: The templates were full-length and nontagged human SERT in pcdna3.1; expressed in transfected cells; host or cells: COS-7, HEK293 or MDCK (uptake); COS-7 (efflux)
Method: (§1) COS-7, HEK293, and MDCK cells were maintained in Dulbecco modified Eagle medium (3.5 g/l glucose) supplemented with FBS (10% each) at 37° C. with 5% CO2. Uptake experiments were performed 2 days after transfecting DNAs (hSERT, human dopamine transporter [hDAT], chimeras or mutants, or empty vector for background) with TransIT-LT1 (Minis Bio LLC, Madison, Wis., USA) transfection reagent and plating the cells in 24- or 96-well plates.
(§2) The uptake was allowed to continue for 10 min at room temperature and was terminated by washing with PBS-CM. […] Vmax and KM are given as mean±S.D. of three independent experiments. […] EC50 values are given as mean±S.E.M. of at least five independent experiments. Statistical significance between vehicle and drug treatments was assessed using Student t-test or one-way analysis of variance (ANOVA) Dunnett's multiple-comparison test (p<0.05).

SmSERT = SmSERT (Schistosoma mansoni, UniProt Q3I1M7); experiment: Transport inhibition constants, SmSERT; type: cell-based
[2] = target: T2, hSERT 112C mutant (N112C) (Homo sapiens, UniProt P31645, N112C); experiment: MDMA-elicited [3H]-serotonin efflux in COS-7 cells, 112C mutant; type: cell-based; conditions: for effect on MDMA-elicited efflux: 112C (N112C) mutant, 1 μM modulator
T2 construct: The templates were full-length and nontagged human SERT in pcdna3.1; expressed in transfected cells; host or cells: COS-7 (efflux)
Method: (§3) COS-7 cells were maintained under the same conditions as above. Efflux experiments were performed 2 days after cell transfection with hSERT or empty vector and plating of the cells in 24-well plates. Cells were washed with room temperature PBS-CM and then loaded with 50 nM [^3H]-serotonin for 1 h. After preloading, cells were washed twice with buffer and then incubated for 10 min with or without substrates at room temperature. After incubation, the supernatant was collected, liquid scintillation fluid added, and the samples counted (Beckman LS-6500 Multi-purpose Scintillation Counter; Beckman Coulter, Brea, Calif.). The cells were solubilized in a solution of 0.1% sodium dodecyl sulfate and 0.1 M NaOH; liquid scintillation fluid was added and tubes were counted as above. All assays were done in quadruplicate.
(§4) The percentage of [^3H]-serotonin efflux among different treatments was calculated by adding counts of supernatant plus cell lysis, with the supernatant counts then divided by the total and multiplied by 100 to yield the percentage of efflux.

mSERT mutant YETQ-L563V = experiment: Substrate-elicited efflux, mSERT mutant YETQ-L563V; type: cell-based, mouse; conditions: up to highest testable concentration
Method: Efflux is terminated by collecting the supernatant. Both cells and supernatant are counted by liquid scintillation counting. Efflux is calculated as ratio of supernatant over supernatant and cells.

SERT [3] = target: T1, SERT; experiment: [3H]-serotonin uptake after preincubation with modulator; type: cell-based; conditions: for effect on Vmax of serotonin uptake: serotonin uptake kinetics
Method: as §1, §2

SERT [4] = target: T1, SERT; experiment: SERT-mediated serotonin uptake inhibition by SSRIs in presence of modulator; type: cell-based; conditions: effect weaker than with citalopram
Method: as §1, with “plates. The media was removed and the cells were washed with PBS (137 mM NaCl, 2.7 mM KCl, 4.3 mM Na2HPO4, 1.4 mM KH2PO4, pH 7.4) containing 0.1 mM CaCl2, 1 mM MgCl2, 10 μM clorgyline, 10 μM pargyline, 5 μM RO 41-0960, and 100 μM ascorbic acid (PBS-CM).” for “plates.”
Mutants are functionally tested in transfected COS-7 cells. Based on the success of the approach that identified the A1 site, the critical residues identified elsewhere herein are tested for changes in uptake kinetics and amphetamine-mediated efflux. Following this initial screen, residues displaying altered activity are tested further in uptake inhibition and ligand displacement assays. […] Following uptake, cells are washed and radioactivity is counted using liquid scintillation counting. […] Apparent Km and Vmax are determined using nonlinear regression analysis. The interaction of WT and mutant MAT with psychostimulants and transporter inhibitors is assessed using uptake inhibition assays. […]

SERT E493D mutant = target: T3, SERT E493D mutant (Homo sapiens, UniProt P31645, E493D); experiment: SERT function with mutated extracellular gate; type: cell-based
T3 construct: The templates were full-length and nontagged human SERT in pcdna3.1; expressed in transfected cells; host or cells: COS-7

hDAT = target: T4, hDAT (Homo sapiens, UniProt Q01959); experiment: [3H]-dopamine uptake after preincubation with modulator; type: cell-based
T4 construct: expressed in transfected cells; host or cells: COS-7, HEK293 or MDCK
Method: as §1, §2

hSERT wild-type = target: T5, hSERT wild-type (Homo sapiens, UniProt P31645); experiment: Basal/leak [3H]-serotonin efflux in COS-7 cells, wild-type; type: cell-based; conditions: no extracellular substrate, read-out: IC50 inhibition of basal/leak efflux
T5 construct: The templates were full-length and nontagged human SERT in pcdna3.1; expressed in transfected cells; host or cells: COS-7 (efflux)
Method: as §3, §4

hSERT 112C mutant = target: T6, hSERT 112C mutant (Homo sapiens, UniProt P31645, N112C); experiment: Basal/leak [3H]-serotonin efflux in COS-7 cells, 112C mutant; type: cell-based
T6 construct: The templates were full-length and nontagged human SERT in pcdna3.1; expressed in transfected cells; host or cells: COS-7 (efflux); COS-7, HEK293 or MDCK (uptake)
Method: as §3, §4

paroxetine binding sites = paroxetine binding sites (Homo sapiens, UniProt P31645); experiment: Paroxetine binding
wild-type human SERT = wild-type human SERT (Homo sapiens, UniProt P31645); experiment: MDMA-elicited [3H]-serotonin efflux in COS-7 cells, wild-type; type: cell-based; design: The templates were full-length and nontagged human SERT in pcdna3.1; expressed in transfected cells; host or cells: COS-7 (efflux); conditions: for effect on MDMA-elicited efflux: 1 μM modulator
Method: as §3, §4

T4 sequence (Q01959 whole entry): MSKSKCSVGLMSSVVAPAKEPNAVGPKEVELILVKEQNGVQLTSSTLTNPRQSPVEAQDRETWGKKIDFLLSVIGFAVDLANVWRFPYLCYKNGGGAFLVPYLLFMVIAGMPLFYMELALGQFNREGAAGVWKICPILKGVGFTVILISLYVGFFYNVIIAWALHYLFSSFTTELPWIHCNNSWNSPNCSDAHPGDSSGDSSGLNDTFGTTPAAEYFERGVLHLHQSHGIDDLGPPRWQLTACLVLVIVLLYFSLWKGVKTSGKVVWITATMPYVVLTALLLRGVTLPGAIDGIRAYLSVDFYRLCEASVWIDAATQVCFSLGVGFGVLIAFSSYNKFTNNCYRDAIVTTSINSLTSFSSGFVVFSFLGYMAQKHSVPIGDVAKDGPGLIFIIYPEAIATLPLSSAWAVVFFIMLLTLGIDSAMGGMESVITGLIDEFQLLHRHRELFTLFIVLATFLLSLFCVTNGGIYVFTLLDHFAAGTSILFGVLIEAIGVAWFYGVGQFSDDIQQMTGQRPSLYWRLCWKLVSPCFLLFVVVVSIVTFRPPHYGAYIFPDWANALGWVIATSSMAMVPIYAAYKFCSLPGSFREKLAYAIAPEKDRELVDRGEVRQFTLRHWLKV
Sequence of SmSERT (Q3I1M7 entry or part of it): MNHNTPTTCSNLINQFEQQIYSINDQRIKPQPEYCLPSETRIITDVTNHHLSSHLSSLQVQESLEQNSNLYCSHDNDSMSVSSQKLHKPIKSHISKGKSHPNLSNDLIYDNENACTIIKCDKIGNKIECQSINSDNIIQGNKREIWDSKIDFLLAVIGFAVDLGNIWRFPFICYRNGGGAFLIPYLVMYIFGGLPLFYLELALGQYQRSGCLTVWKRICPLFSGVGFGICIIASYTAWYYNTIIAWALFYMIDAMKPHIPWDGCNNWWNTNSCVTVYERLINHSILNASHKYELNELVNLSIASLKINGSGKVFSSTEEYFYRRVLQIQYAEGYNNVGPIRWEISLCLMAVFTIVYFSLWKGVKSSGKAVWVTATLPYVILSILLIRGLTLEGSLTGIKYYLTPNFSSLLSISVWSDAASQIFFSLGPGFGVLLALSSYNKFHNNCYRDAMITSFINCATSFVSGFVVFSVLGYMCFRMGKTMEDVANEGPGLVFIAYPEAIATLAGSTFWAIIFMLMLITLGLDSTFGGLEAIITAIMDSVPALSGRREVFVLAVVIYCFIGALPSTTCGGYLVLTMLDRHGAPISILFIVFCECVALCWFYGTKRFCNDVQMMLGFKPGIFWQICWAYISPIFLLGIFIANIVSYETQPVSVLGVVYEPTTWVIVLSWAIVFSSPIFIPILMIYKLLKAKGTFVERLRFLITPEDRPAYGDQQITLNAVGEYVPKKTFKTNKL

## CNC(C)Cc1ccc2c(c1)OCO2 (racemic) [(±)MDMA, methylenedioxy-methamphetamine]
SERT [1]
  Ki: 2700 ± 500 nM
SmSERT
  Ki: 313000 ± 159000 nM
[2]; N112C, dose-response experiment with MDMA
  affinity for MDMA of mutant versus wild-type: reduced by fivefold
mSERT mutant YETQ-L563V
  reversal of transport (efflux): did not elicit any significant reversal of transport

## Cc1cc2nc(-c3ccc(SCC(=O)Nc4ccc(S(=O)(=O)NC5CC5)cc4)nc3)[nH]c2cc1C [ATM1, N-[4-(cyclopropylsulfamoyl)phenyl]-2-{[5-(5,6-dimethyl-1H-benzimidazol-2-yl)-2-pyridinyl]sulfanyl}acetamide]
SERT [3]
  effect on SERT uptake activity / specificity: SERT-specific inhibitor
SERT [3]; Vmax and KM
  mechanism of SERT inhibition: non-competitive mechanism
SERT [3]; listed as KM-456
  effect on SERT uptake activity / specificity: specific for SERT
SERT [4]
  effect on affinity of fluoxetine for SERT: decreasing their affinity for SERT
SERT E493D mutant
  effect on SERT function: not affected

## CN(C)c1ccc(C(C(=O)NCc2ccccc2)N(Cc2cccnc2)C(=O)c2snc(C(N)=O)c2N)cc1 (stereo not drawn) [ATM7, 4-amino-N^5-{2-(benzylamino)-1-[4-(dimethylamino)phenyl]-2-oxoethyl}-N^5-(3-pyridinylmethyl)-1,2-thiazole-3,5-dicarboxamide]
SERT [3]
  effect on SERT uptake activity / specificity: activated serotonin uptake very potently at nanomolar concentrations
  shape of concentration response on transporter uptake: bell-shaped response
  effect on Vmax of serotonin uptake: did not affect Vmax; also recorded: no effect
SERT [3]; dose-response assay
  activation of serotonin uptake: up to 50%
SERT [3]; listed as KM-986
  shape of concentration response on transporter uptake: biphasic mode of action, enhancing transporter activity at low concentrations and inhibiting transporter function at higher concentrations
  effect on Vmax of serotonin uptake: do not observe any effect; also recorded: no effect
SERT [3]; substrate 25 and 100 nM
  effect on hSERT uptake at low and high substrate concentration: displayed activity only at low concentrations
hDAT
  effect on DAT uptake activity / specificity: also DAT activity at higher concentrations
[2]; 1 μM ATM7, 112C mutant, vehicle treated 365%±40%
  efficacy of MDMA in eliciting release of intracellular serotonin in the presence of ATM7: 375%±45%
[2]
  effect on MDMA-elicited efflux: had no effect on MDMA-elicited efflux
[2]; listed as KM-986
  effect on MDMA-elicited efflux: does not show KM-986-mediated potentiation of MDMA-elicited efflux
hSERT wild-type
  IC50: 0.63 ± 0.31 nM
hSERT 112C mutant
  IC50: 37 ± 25 nM
Paroxetine binding sites
  effect on paroxetine binding sites: decreased
wild-type human SERT; 1 μM ATM7
  effect on affinity for MDMA: not affected
wild-type human SERT; 1 μM ATM7, vehicle treated 380%±10%
  efficacy of MDMA in eliciting release of intracellular serotonin in the presence of ATM7: 510%±17%
wild-type human SERT
  effect on MDMA-elicited efflux: enhanced MDMA-elicited efflux
wild-type human SERT; listed as KM-986
  effect on MDMA-elicited efflux: potentiates MDMA-elicited efflux
